According to patent US20110091470A1, “ANTI-FLT3 ANTIBODIES” (IMCLONE LLC, priority 2008, published 2011):

Experiments:
SEM-K2 cells [1] = assay: SEM-K2 xenograft human leukemia model; type: in vivo, NOD-SCID mice; conditions: 20 mg/kg i.p. two times weekly
Human Leukemia Cells = assay: ADCC 51Cr release assay with human NK cells; type: cell-based
SEM-K2 cells [2] = assay: Combination therapy with EB10 and MTX in SEM-K2 leukemia model; type: in vivo, NOD/SCID mice; conditions: monotherapy: EB10 10 mg/kg i.p. 2×/week; MTX 100 mg/kg Q7D
Experimental: One day prior to the start of treatment, i.v. inject 65, 7 weeks old, male NOD/SCID mice with 5×10^5 SEM-K2 cells suspended in PBS in a total volume of 200 μl. Drop from the study mice receiving less than 90% of cells intravenously.
Prepare MTX (Sigma Chemical, Cat # M9929) in USP Saline at a concentration of 10 mg/ml and dose Q7D for three cycles. […] Record mouse survival daily. Follow the mice for survival, and sacrifice any mouse displaying signs of morbidity/mortality; mark as dead on the day of sacrifice. End the study on day 168 and sacrifice any mice surviving to that point. Compare survival in the treatment groups by Log Rank Test between treatment groups.

BaF3-ITD cells [3] = assay: FL-independent cell proliferation assay ([3H]-thymidine); type: cell-based
Experimental: Harvest EOL-1 cells and wash three times using serum-free RPMI 1640 medium. Culture cells in serum-free RPMI 1640 medium for 12 hours. For BaF3-ITD cells, perform the proliferation assay in RPMI 1640 medium supplemented with 10% FCS in the absence of exogenous FL. Reconstitute cells in serum-free AIM-V medium, plate in triplicates in a flat-bottomed 96-well plate (1×104/100 μl/well) and incubate with varying concentrations of antibodies (from 0 to 100 nM) and 30 ng/ml of FL at 37° C. for 68 hours. As a background control, incubate cells with medium alone in the absence of exogenous FL. Pulse cells with 0.25 μCi/well of [^3H]-thymidine for 4 hours. Harvest cells and measure cpm in a PerkinElmer Wallace-1205 Betaplate Liquid Scintillation Counter (Wellesley, Mass.). Calculate the percent inhibition of FL-induced proliferation for EOL-1 cells; deduce the cpm of background proliferation (i.e., cell samples not stimulated with FL) from the cpm of all experimental samples. Calculate percent inhibition using the following formula: [(cpm of untreated sample−cpm of antibody-treated sample)/cpm of untreated sample]×100%.

[4] = tested on: human leukemia cells (human CD45) in bone marrow; assay: Bone marrow engraftment of human leukemia cells; type: in vivo, mice; conditions: 500 μg/dose; versus control-IgG treated group
Experimental: Bone Marrow Engraftment of Human Leukemia Cells: Harvest bone marrow from the femurs of EB10-treated mice (500 μg/dose) and the control-IgG treated group at […]. Analyze cells for human CD45 by flow cytometry at 6 and 14 weeks post leukemia cell injection for the degree of tumor cell infiltration of bone marrow. Compare the degree of tumor cell infiltration of bone marrow using immunohistochemical staining with a fluorescence-labeled anti-human CD45 antibody.

EOL-1 leukemia cells = assay: EOL-1 xenograft human AML leukemia model; type: in vivo, NOD-SCID mice
Stat5 = Stat5 phosphorylation assay; conditions: EOL-1, wild type
BaF3-ITD cells [5] = assay: BaF3-ITD leukemia model; type: in vivo, athymic (nu/nu) mice
Experimental: BaF3-ITD Leukemia Model: Initiate i.v. injection of groups of 10 athymic (nu/nu) mice with 5×10^4 BaF3-ITD cells. For statistic analysis, use the non-parametric one-tailed Mann-Whitney Rank Sum test (SigmaStat 2.03, SPSS, Inc., Chicago, Ill.). Start treatment one day after tumor injection. […] Treat the control group with purified human IgG (500 μg/dose). Monitor mice daily for survival.

MOLM-14 leukemia cells = assay: MOLM14 xenograft AML leukemia model; type: in vivo, mice
Experimental: MOLM14 Xenograft AML Leukemia Model: Irradiate mice with 200 rads with a gamma irradiator and then i.v. inject with 10×10^6 MOLM-14 leukemia cells. Start treatment one day after tumor injection. […] Treat the control group with […] USP saline. Monitor mice daily for survival. Compare survival in the treatment groups by Log Rank test.

[6] = target: wild-type FLT3 expressed on human leukemia cells (human) (UniProt P36888); assay: cell-based or functional assay
[7] = target: ITD-mutant FLT3 expressed on BaF3-ITD cells; assay: cell-based or functional assay
[8] = 100 μg/dose i.p. three times weekly
[9] = 500 μg/dose i.p. three times weekly

wild-type FLT3 expressed on human leukemia cells (human), sequence (P36888 27-993 limits assumed): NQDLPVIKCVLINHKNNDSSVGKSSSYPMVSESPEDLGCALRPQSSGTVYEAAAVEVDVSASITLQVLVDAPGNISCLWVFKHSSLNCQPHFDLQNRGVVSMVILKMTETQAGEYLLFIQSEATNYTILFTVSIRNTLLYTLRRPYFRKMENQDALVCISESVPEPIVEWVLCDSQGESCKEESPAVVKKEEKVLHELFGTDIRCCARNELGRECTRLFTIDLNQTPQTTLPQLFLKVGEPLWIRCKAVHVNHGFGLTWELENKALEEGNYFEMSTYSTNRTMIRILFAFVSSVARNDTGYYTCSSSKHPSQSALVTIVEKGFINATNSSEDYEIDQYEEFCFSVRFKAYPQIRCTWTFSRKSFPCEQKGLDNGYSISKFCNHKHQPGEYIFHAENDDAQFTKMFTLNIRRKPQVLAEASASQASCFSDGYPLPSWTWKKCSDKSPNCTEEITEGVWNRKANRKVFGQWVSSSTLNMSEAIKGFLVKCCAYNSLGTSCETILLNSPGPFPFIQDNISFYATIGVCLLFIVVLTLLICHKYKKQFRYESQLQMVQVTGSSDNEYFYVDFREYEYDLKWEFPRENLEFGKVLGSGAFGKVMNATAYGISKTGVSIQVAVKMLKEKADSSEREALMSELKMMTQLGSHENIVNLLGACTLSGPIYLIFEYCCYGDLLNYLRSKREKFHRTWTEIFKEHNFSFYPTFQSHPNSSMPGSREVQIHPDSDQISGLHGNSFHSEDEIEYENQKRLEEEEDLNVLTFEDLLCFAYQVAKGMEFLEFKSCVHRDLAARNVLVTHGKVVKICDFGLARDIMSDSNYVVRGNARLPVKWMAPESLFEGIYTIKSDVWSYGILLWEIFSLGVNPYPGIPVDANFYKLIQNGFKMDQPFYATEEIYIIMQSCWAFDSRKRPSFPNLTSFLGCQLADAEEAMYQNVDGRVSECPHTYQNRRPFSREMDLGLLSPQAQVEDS
ITD-mutant FLT3 expressed on BaF3-ITD cells, sequence (chain, as listed by the source mutant limits assumed, form in doubt): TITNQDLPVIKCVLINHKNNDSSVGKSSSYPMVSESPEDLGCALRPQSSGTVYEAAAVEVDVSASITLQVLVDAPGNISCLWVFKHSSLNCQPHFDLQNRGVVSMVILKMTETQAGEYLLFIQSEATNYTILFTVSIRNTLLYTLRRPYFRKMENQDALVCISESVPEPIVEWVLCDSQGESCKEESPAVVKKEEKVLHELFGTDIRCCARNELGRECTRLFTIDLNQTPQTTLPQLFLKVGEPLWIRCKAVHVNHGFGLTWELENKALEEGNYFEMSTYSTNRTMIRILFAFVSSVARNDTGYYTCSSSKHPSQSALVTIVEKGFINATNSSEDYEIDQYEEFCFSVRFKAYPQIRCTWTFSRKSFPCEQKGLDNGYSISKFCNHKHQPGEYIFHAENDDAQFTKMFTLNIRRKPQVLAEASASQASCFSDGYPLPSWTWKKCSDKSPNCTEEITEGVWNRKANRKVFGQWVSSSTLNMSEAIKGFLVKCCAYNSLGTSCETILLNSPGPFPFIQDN

Compound: D4-3: recombinant human monoclonal antibody, full length IgG1κ targeting human FLT3; heavy chain SEQ ID NO 27, light chain SEQ ID NO 30 [Antibody D4-3]
- median survival (SEM-K2 cells [1]): 55.5 days
- ADCC response (in words) (Human Leukemia Cells): less potent ADCC response

Compound: CN(Cc1cnc2nc(N)nc(N)c2n1)c1ccc(C(=O)N[C@@H](CCC(=O)O)C(=O)O)cc1 [MTX, methotrexate, reference compound]
- mouse survival in comparison to the control group (in words) (SEM-K2 cells [2]): prolonged survival

Compound: EB10: recombinant human monoclonal antibody, full length IgG1κ targeting human FLT3; heavy chain SEQ ID NO 25, light chain SEQ ID NO 28
- % Inhibition of FL-independent proliferation (Mean ± Standard deviation) (BaF3-ITD cells [3]; 6 nM): 9.6 ± 3.1%
- % Inhibition of FL-independent proliferation (Mean ± Standard deviation) (BaF3-ITD cells [3]; 13 nM): 13.0 ± 4.0%
- % Inhibition of FL-independent proliferation (Mean ± Standard deviation) (BaF3-ITD cells [3]; 25 nM): 23.3 ± 0.6%
- % Inhibition of FL-independent proliferation (Mean ± Standard deviation) (BaF3-ITD cells [3]; 50 nM): 28.6 ± 3.1%
- % Inhibition of FL-independent proliferation (Mean ± Standard deviation) (BaF3-ITD cells [3]; 100 nM): 29.2 ± 3.0%
- median survival (SEM-K2 cells [1]): 108.5 days
- mouse survival in comparison to the control group (in words) (SEM-K2 cells [2]): significantly prolonged mouse survival
- ADCC response (in words) (Human Leukemia Cells): strong ADCC response
- number of tumor cells in bone marrow [4]: decreased significantly
- effect on survival (in words) (EOL-1 leukemia cells; 10 μg): No effect
- mean survival time (EOL-1 leukemia cells; [8]): 52.8 ± 18.6 days
- mean survival time (EOL-1 leukemia cells; 250 μg/dose i.p. three times weekly): 55.3 ± 18.9 days
- mean survival time (EOL-1 leukemia cells; [9]): 62.3 ± 18.7 days
- Inhibition of Stat5 Phosphorylation (IC50) (Stat5): No effect
- mean survival time (BaF3-ITD cells [5]; [8]): 66.5 ± 32.9 days
- mean survival time (BaF3-ITD cells [5]; [9]): 63.4 ± 44.6 days
- median survival (MOLM-14 leukemia cells; 0.2 mg/kg i.p. two times weekly): 38.5 days
- median survival (MOLM-14 leukemia cells; 10 mg/kg i.p. two times weekly): 63 days

Compound: control IgG (antibody)
- % Inhibition of FL-induced proliferation of EOL-1 cells at 100 nM [6]: 0.4%
- % Inhibition of FL-independent proliferation of BaF3-ITD cells at 100 nM [7]: 2%
